Experimental data from patent publication US5932607A, “Imidazole derivatives and process for preparing the same” (Kyorin Pharmaceutical Co., Ltd., priority 1993, dated 1999).
Where two headings read alike, the source gives them in different places.

Tests used:
Assay type in all cases: cell-based, guinea pig (male Hartley)
[1] = target: T1, muscarinic receptor (atrium, cardiac) (Cavia porcellus, UniProt H0VRN8); experiment: Anticholinergic action in guinea-pig atria (antagonism of ACh response, Schild method); conditions: for Kb: read-out: Anticholinergic activity (pA2) Atrium (converted)
T1 construct: from tissue; host or cells: guinea-pig isolated atria (male Hartley)
T1 sequence (H0VRN8 1-466): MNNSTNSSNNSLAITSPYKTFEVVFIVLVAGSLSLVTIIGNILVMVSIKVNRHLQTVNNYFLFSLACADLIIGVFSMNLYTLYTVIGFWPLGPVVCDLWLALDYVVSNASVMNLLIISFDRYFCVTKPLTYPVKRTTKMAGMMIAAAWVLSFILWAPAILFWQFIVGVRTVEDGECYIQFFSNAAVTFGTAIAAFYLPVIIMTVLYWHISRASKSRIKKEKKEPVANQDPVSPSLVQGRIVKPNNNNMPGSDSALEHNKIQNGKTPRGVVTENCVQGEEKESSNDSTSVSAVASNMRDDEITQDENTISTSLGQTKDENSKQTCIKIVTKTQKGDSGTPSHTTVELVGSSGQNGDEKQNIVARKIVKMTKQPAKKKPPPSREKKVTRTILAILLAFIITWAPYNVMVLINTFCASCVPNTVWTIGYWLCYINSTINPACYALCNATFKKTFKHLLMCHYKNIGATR
Description: (§1) 1. Anticholinergic action in guinea-pig ileum and atria Male Hartley guinea pigs were sacrificed by blowing on the head and bleeding.
The isolated atria were suspended under 0.5 g tension in organ baths containing Tyrode solution gassed with 95% O2 and 5% CO2 at 32° C.
Dose-response curves were obtained by cumulative addition of ACh and repeated in the presence of various concentrations of test compounds, allowing 10 min. equilibration time.
The affinity of test compounds were determined as described for ileum.

[2] = target: T2, muscarinic receptor (ileum) (Cavia porcellus, UniProt H0W1Z3); experiment: Anticholinergic action in guinea-pig ileum (antagonism of ACh response, Schild method); conditions: ileum, Tyrode solution, 32° C., test compound 5 min. before ACh; for Kb: read-out: Anticholinergic activity (pA2) Ileum (converted)
T2 construct: from tissue; host or cells: guinea-pig ileal segments (male Hartley)
T2 sequence (H0W1Z3 1-590): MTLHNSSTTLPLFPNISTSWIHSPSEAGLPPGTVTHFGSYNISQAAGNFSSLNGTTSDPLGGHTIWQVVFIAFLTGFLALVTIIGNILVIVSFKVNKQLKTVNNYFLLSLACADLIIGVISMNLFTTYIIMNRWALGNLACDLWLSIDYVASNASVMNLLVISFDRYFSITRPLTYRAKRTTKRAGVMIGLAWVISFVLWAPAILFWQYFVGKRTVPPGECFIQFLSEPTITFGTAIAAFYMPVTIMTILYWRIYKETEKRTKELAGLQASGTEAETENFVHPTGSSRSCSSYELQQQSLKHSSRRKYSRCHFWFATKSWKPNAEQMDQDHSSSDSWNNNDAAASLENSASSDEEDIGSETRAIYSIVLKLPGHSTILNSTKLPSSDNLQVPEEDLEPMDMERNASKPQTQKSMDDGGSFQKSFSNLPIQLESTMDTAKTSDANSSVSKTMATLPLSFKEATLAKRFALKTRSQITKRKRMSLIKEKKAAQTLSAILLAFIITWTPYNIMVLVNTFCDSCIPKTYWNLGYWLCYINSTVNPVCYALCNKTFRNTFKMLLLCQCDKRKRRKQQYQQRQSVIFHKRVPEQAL
Description: as §1
(§2) Responses to acetyllchlloline (ACh) added cumulatively to the baths were isotonically recorded under a tension of 1 g. Dose-response curves of ACh were determined in the absence and presence of test compounds in various concentrations added to the baths 5 min. before ACh application.

[3] = tested on: muscarinic receptor (ileum); experiment: as above; conditions: ileum versus heart
Description: as §1, §2

[4] = target: T3, muscarinic receptor (trachea) (Cavia porcellus, UniProt H0W1Z3); experiment: Anticholinergic action in guinea-pig trachea (antagonism of ACh response, Schild or van Rossum method); conditions: Tyrode solution, 37° C., 10 minutes equilibration, read-out: Anticholinergic activity (pA2) Trachea (converted)
T3 construct: from tissue; host or cells: guinea-pig tracheal ring strips (male Hartley)
T3 sequence (H0W1Z3 1-590): as above
Description: 4. Anticholinergic action in guinea-pig trachea Male Hartley guinea-pigs were killed by blowing on the head and bleeding.
Ring strips of trachea were suspended in organ bath filled with Tyrode solution, kept at 37° C. and gassed with a mixture of 95% O2 and 5% CO2.
Responses to ACh were isometrically recorded under a tension of 1 g. Concentration-Response curves were obtained cumulative addition of ACh and repeated in the presence of various concentrations of test compounds, allowing 10 minutes equilibration time.

[5] = Table 8, isolated atria, Tyrode solution, 32° C., 10 min. equilibration

Kb [1, 5] [nM] | Kb [4] [nM] | Kb ([1]; Table 9, atrium) [nM] | SMILES | affinity for receptors in ileum as compared to receptors in heart [3] [times] | further results
6.17 |  |  | Cc1nccn1CCCC(C#N)(c1ccccc1)c1ccccc1 [Example 7] |  | Kb [2]: 1.12 nM
18.6 |  |  | CC(C)c1nccn1CCC(C(N)=O)(c1ccccc1)c1ccccc1 [Example 14, 4-(2-isopropyl-1-imidazolyl)-2,2-diphenylbutylamide] | 10 | Kb [2]: 0.676 nM

Continued, compound first:

SMILES | Kb [1, 5] [nM] | Kb [4] [nM] | Kb ([1]; Table 9, atrium) [nM] | affinity for receptors in ileum as compared to receptors in heart [3] [times] | further results
Cc1nccn1CCCCC(C#N)(c1ccccc1)c1ccccc1 [Example 8] |  |  |  | 10 | Anticholinergic activity (pA2) Atrium [1, 5]: 7.08; Anticholinergic activity (pA2) Ileum [2]: 8.17
Cc1nccn1CCC(C(N)=O)(c1ccccc1)c1ccccc1 [Example 11, 4-(2-Methyl-1-imidazolyl)-2,2-diphenylbutylamide] |  |  |  | 10 | 
Cc1n(CCC(C(N)=O)(c2ccccc2)c2ccccc2)cc[n+]1Cc1ccc(F)c(F)c1 [Example 44] |  | 5.25 | 28.8 |  | 
Cc1n(CCC(C(N)=O)(c2ccccc2)c2ccccc2)cc[n+]1Cc1ccc(-c2ccccc2)cc1 [Example 50] |  | 4.57 | 30.2 |  | 
Cc1n(CCCCC(C(N)=O)(c2ccccc2)c2ccccc2)cc[n+]1Cc1ccccc1 [Example 51] |  | 4.57 | 20 |  | 
CCN(CC)CC#CCOC(=O)C(O)(c1ccccc1)C1CCCCC1 (stereo not shown) [Oxybutynin, reference compound] | 4.07 |  |  |  | 
